# From ChEMBL document CHEMBL6153056 (Eur J Med Chem, 2025)
# Calls of active or inactive are those of the source. No cut-off for these calls is given here.
# Experiments:
# DU-145 [1] = assay: Antiproliferative activity against human DU-145 cells incubated for 72 hrs by MTT assay; format: functional, cell-based; details: DU-145, 72 h
# CDK9/cyclin T1 = CDK9/cyclin T1 (Homo sapiens, UniProt P50750); assay: Inhibition of CDK9/cyclin T1 (unknown origin) pre-incubated for 20 min followed by 32P-ATP addition and measured after 2 hrs; format: protein-complex assay
# Chain of CDK9/cyclin T1 (O60563 whole entry): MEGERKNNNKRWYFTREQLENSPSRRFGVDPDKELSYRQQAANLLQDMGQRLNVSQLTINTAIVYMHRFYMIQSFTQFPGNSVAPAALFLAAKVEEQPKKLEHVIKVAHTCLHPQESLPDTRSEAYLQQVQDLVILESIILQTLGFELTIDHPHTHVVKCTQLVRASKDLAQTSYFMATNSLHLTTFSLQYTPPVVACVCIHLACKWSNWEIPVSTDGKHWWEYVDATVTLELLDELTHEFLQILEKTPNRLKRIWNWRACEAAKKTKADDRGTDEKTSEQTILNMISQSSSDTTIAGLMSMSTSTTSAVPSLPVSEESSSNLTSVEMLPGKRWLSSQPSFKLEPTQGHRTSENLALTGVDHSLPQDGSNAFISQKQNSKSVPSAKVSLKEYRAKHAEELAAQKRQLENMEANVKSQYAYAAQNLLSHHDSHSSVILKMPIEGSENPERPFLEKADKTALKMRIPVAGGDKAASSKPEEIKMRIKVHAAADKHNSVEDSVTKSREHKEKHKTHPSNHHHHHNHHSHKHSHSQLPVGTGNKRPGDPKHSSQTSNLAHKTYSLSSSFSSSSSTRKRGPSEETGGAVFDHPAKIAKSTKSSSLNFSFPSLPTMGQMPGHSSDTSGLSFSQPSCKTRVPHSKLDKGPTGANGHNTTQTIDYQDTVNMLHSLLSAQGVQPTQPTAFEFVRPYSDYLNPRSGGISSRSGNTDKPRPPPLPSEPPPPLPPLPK
# Chain of CDK9/cyclin T1 (P50750 whole entry): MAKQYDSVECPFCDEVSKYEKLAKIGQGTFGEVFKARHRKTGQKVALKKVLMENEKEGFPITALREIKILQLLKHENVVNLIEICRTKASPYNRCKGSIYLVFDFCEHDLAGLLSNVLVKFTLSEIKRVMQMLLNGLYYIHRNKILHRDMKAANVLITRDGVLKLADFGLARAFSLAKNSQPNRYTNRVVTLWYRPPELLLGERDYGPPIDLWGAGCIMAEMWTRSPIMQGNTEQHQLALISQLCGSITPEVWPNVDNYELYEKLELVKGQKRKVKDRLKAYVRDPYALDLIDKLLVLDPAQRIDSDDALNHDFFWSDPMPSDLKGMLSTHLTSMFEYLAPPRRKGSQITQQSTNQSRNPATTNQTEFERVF
# CWR22R = assay: Antiproliferative activity against human 22Rv1 cells incubated for 72 hrs by MTT assay; format: functional, cell-based; details: 22Rv1, 72 h
# DU-145 [2] = assay: Antitumor activity against human DU-145 cells xenografted in BALB/c mouse model assessed as reduction in tumor volume at 5 mg/kg, ip measured every 12 hrs for 16 days; format: functional, organism-based; details: time 16.0 day
# [3] = Toxicity in BALB/c mouse assessed as change in blood urea nitrogen level in blood at 5 mg/kg, ip measured every 12 hrs for 16 days by biochemical automatic analyzer; format: organism-based; details: in vivo, 384 h, time 16 day
# [4] = Apparent permeability of compound across apical to basolateral side in human Caco-2 cells at 10 uM incubated for 2 hrs; format: ADME, cell-based
# [5] = Drug uptake in human DU-145 cells assessed as increase in green fluorescence in nucleus at 1 uM incubated for 2 hrs by live-cell confocal laser scanning microscopy based analysis; format: ADME; details: du-145, 2 h
# DU-145 [6] = assay: Antitumor activity against human DU-145 cells xenografted in BALB/c mouse model assessed as reduction in tumor volume at 10 mg/kg, ip measured every 12 hrs for 16 days; format: functional, organism-based; details: time 16.0 day
# [7] = Toxicity in BALB/c mouse assessed as change in alanine transferase (ALT) level in blood at 10 mg/kg, ip measured every 12 hrs for 16 days by biochemical automatic analyzer; format: organism-based; details: in vivo, 384 h, time 16 day
# [8] = Toxicity in BALB/c mouse assessed as change in blood urea nitrogen level in blood at 10 mg/kg, ip measured every 12 hrs for 16 days by biochemical automatic analyzer; format: organism-based; details: in vivo, 384 h, time 16 day
# LNCaP = assay: Antiproliferative activity against human LNCaP cells incubated for 72 hrs by MTT assay; format: functional, cell-based
# [9] = Cmax in BALB/c mouse at 10 mg/kg, po measured upto 24 hrs by LC-MS/MS analysis; format: ADME, organism-based; details: in vivo
# [10] = Half life in BALB/c mouse at 10 mg/kg, ip measured upto 24 hrs by LC-MS/MS analysis; format: ADME, organism-based; details: in vivo
# [11] = Microsomal stability in human liver microsomes assessed as residual activity at 5 uM incubated for 15 min in presence of NADPH generating system by HPLC-MS analysis; format: ADME, Microsome; details: read-out: Stability
# [12] = Toxicity in BALB/c mouse assessed as change in aspartate transaminase (AST) level in blood at 10 mg/kg, ip measure every 12 hrs for 16 days by biochemical automatic analyzer; format: organism-based; details: in vivo, 384 h, time 16 day
# MCF7 = assay: Antiproliferative activity against human MCF7 cells incubated for 72 hrs by MTT assay; format: functional, cell-based; details: MCF7, 72 h
# VCaP = assay: Antiproliferative activity against human VCaP cells incubated for 72 hrs by MTT assay; format: functional, cell-based
# [13] = Half life in BALB/c mouse at 10 mg/kg, po measured upto 24 hrs by LC-MS/MS analysis; format: ADME, organism-based; details: in vivo
# [14] = Cmax in BALB/c mouse at 10 mg/kg, ip measured upto 24 hrs by LC-MS/MS analysis; format: ADME, organism-based; details: in vivo
# [15] = Stability in mouse serum at 5 uM measured after 360 mins by HPLC analysis; format: ADME, cell-free; details: read-out: Stability
# [16] = Toxicity in BALB/c mouse xenografted with human DU-145 cells assessed as effect on body weight at 5 mg/kg, ip measured every 12 hrs for 16 days; format: organism-based; details: in vivo, 384 h, time 16 day
# [17] = Toxicity in BALB/c mouse assessed as change in alanine transferase (ALT) level in blood at 5 mg/kg, ip measured every 12 hrs for 16 days by biochemical automatic analyzer; format: organism-based; details: in vivo, 384 h, time 16 day
# PC-3 = assay: Antiproliferative activity against human PC-3 cells incubated for 72 hrs by MTT assay; format: functional, cell-based; details: PC-3, 72 h
# [18] = Half life in BALB/c mouse at 2 mg/kg, iv measured upto 24 hrs by LC-MS/MS analysis; format: ADME, organism-based; details: in vivo
# [19] = Stability of the compound in stimulated gastric fluid pH 1.2 at 5 uM incubated for 30 mins by HPLC-MS analysis; format: physicochemical; details: simulated gastric fluid, read-out: Stability
# [20] = Toxicity in BALB/c mouse xenografted with human DU-145 cells assessed as effect on body weight at 10 mg/kg, ip measured every 12 hrs for 16 days; format: organism-based; details: in vivo, 384 h, time 16 day
# T47D = assay: Antiproliferative activity against human T47D cells incubated for 72 hrs by MTT assay; format: functional, cell-based
# [21] = Tmax in BALB/c mouse at 10 mg/kg, po measured upto 24 hrs by LC-MS/MS analysis; format: ADME, organism-based; details: in vivo
# [22] = Toxicity in BALB/c mouse assessed as change in aspartate transaminase (AST) level in blood at 5 mg/kg, ip measure every 12 hrs for 16 days by biochemical automatic analyzer; format: organism-based; details: in vivo, 384 h, time 16 day
# [23] = Toxicity in BALB/c mouse assessed as change in creatinine level in blood at 5 mg/kg, ip measured every 12 hrs for 16 days by biochemical automatic analyzer; format: organism-based; details: in vivo, 384 h, time 16 day
# [24] = Drug uptake in human DU-145 cells assessed as increase in green fluorescence in cytoplasm at 1 uM incubated for 2 hrs by live-cell confocal laser scanning microscopy based analysis; format: ADME; details: du-145, 2 h
# [25] = Toxicity in BALB/c mouse assessed as change in creatinine level in blood at 10 mg/kg, ip measured every 12 hrs for 16 days by biochemical automatic analyzer; format: organism-based; details: in vivo, 384 h, time 16 day
# [26] = Tmax in BALB/c mouse at 10 mg/kg, ip measured upto 24 hrs by LC-MS/MS analysis; format: ADME, organism-based; details: in vivo
# DU-145 [27] = assay: Upregulation of CDK9 expression in human DU-145 cells by Western blot analysis; format: functional, cell-based
smiles,measurement,setting,value
CC(=O)N[C@H](CC(N)=O)C(=O)N[C@@H](C)C(=O)N[C@H](C(=O)N[C@@H](CCC(N)=O)C(=O)N[C@H](C(=O)N[C@H](CC(C)C)C(=O)NCC(=O)N[C@@H](Cc1ccccc1)C(=O)N[C@H](CCC(N)=O)C(=O)N[C@@H](CC(C)C)C(=O)N[C@H](C(N)=O)[C@@H](C)O)[C@@H](C)O)C(C)C,IC50,DU-145 [1],2520 nM
same,IC50,CDK9/cyclin T1,23.9 nM
CC(=O)N[C@H](C)C(=O)N[C@@H](C)C(=O)N[C@@H](CC(C)C)C(=O)N[C@@H](C)C(=O)N[C@H](C(=O)N[C@H](CC(C)C)C(=O)NCC(=O)N[C@@H](Cc1ccccc1)C(=O)N[C@H](C)C(=O)N[C@@H](CC(C)C)C(=O)N[C@@H](C)C(N)=O)[C@@H](C)O,IC50,DU-145 [1],> 50000 nM
same,IC50,CDK9/cyclin T1,> 50 nM
CC(=O)N[C@@H](CC(N)=O)C(=O)N[C@@H](C)C(=O)N[C@@H](CC(C)C)C(=O)N[C@@H](CCC(N)=O)C(=O)N[C@H](C(=O)N[C@H](CC(C)C)C(=O)NCC(=O)N[C@@H](Cc1ccccc1)C(=O)N[C@H](CCC(N)=O)C(=O)N[C@@H](CC(C)C)C(=O)N[C@H](C(N)=O)[C@@H](C)O)[C@@H](C)O,IC50,DU-145 [1],9030 nM
same,IC50,CDK9/cyclin T1,87.4 nM
Nc1n[nH]c(N)c1/N=N/c1ccc(O)cc1,IC50,DU-145 [1],33100 nM
CC(=O)N[C@H](CC(C)C)C(=O)N[C@@H](C)C(=O)N[C@@H](CC(C)C)C(=O)N[C@@H](CCC(N)=O)C(=O)N[C@H](C(=O)N[C@H](CC(C)C)C(=O)NCC(=O)N[C@@H](Cc1ccccc1)C(=O)N[C@H](CCC(N)=O)C(=O)N[C@@H](CC(C)C)C(=O)N[C@H](C(N)=O)C(C)C)[C@@H](C)O,IC50,DU-145 [1],1670 nM
same,IC50,CDK9/cyclin T1,17.5 nM
CC(=O)N[C@H](CC(N)=O)C(=O)N[C@H](CCC(N)=O)C(=O)N[C@@H](CC(C)C)C(=O)NCC(=O)N[C@@H](Cc1ccccc1)C(=O)N[C@H](CC(C)C)C(=O)N[C@@H](CC(C)C)C(=O)N[C@@H](C)C(=O)N[C@H](C(=O)N[C@@H](CCC(N)=O)C(=O)N[C@H](C(N)=O)[C@@H](C)O)[C@@H](C)O,IC50,DU-145 [1],> 50000 nM
same,IC50,CDK9/cyclin T1,> 50 nM
CC(=O)N[C@H](CC(N)=O)C(=O)N[C@@H](C)C(=O)N[C@@H](CC(C)C)C(=O)N[C@@H](CCC(N)=O)C(=O)N[C@H](C(=O)N[C@H](CC(C)C)C(=O)NCC(=O)N[C@@H](Cc1ccccc1)C(=O)N[C@H](CCC(N)=O)C(=O)N[C@@H](CC(C)C)C(=O)N[C@H](C(N)=O)[C@@H](C)O)[C@@H](C)O,IC50,CWR22R,950 nM
same,Activity,DU-145 [2],Active
same,Activity,[3],Toxic
same,"Papp A→B at 2 h, 10 µM",[4],29.8 ×10⁻⁶ cm/s
same,Drug uptake,[5],Active
same,Activity,DU-145 [6],Active; Compound Showed More Effect
same,Activity,[7],Toxic
same,Activity,[8],Toxic
same,IC50,LNCaP,410 nM
same,Cmax,[9],3200 ng/mL
same,half-life,[10],4.62 h
same,IC50,DU-145 [1],350 nM
same,"remaining at 0.25 h, 5 µM",[11],98.2%
same,Activity,[12],Toxic
same,IC50,MCF7,590 nM
same,IC50,VCaP,810 nM
same,half-life,[13],4.87 h
same,Cmax,[14],2690 ng/mL
same,"remaining at 6 h, 5 µM",[15],87%
same,Activity,[16],Toxic
same,Activity,[17],Toxic
same,IC50,CDK9/cyclin T1,4.16 nM
same,IC50,PC-3,720 nM
same,half-life,[18],5.13 h
same,"remaining at 0.5 h, 5 µM",[19],96.7%
same,Activity,[20],Toxic
same,IC50,T47D,460 nM
same,Tmax,[21],0.41 h
same,Activity,[22],Toxic
same,Activity,[23],Toxic
same,Drug uptake,[24],Active
same,Activity,[25],Toxic
same,Tmax,[26],0.49 h
same,Activity,DU-145 [27],Active
CC(=O)N[C@H](CC(C)C)C(=O)N[C@@H](C)C(=O)N[C@@H](CC(C)C)C(=O)N[C@@H](CCC(N)=O)C(=O)N[C@H](C(=O)N[C@H](CC(C)C)C(=O)NCC(=O)N[C@@H](Cc1ccccc1)C(=O)N[C@H](CCC(N)=O)C(=O)N[C@@H](CC(C)C)C(=O)N[C@H](C(N)=O)[C@@H](C)O)[C@@H](C)O,"Papp A→B at 2 h, 10 µM",[4],26.8 ×10⁻⁶ cm/s
same,IC50,DU-145 [1],820 nM
same,"remaining at 0.25 h, 5 µM",[11],95.6%
same,IC50,CDK9/cyclin T1,10.5 nM
same,"remaining at 0.5 h, 5 µM",[19],94.2%
same,Activity,DU-145 [27],Active
CC(=O)N[C@H](CC(N)=O)C(=O)N[C@@H](C)C(=O)N[C@@H](CC(C)C)C(=O)N[C@@H](CCC(N)=O)C(=O)N[C@H](C(=O)N[C@H](CC(C)C)C(=O)NCC(=O)N[C@@H](Cc1ccccc1)C(=O)N[C@H](C)C(=O)N[C@@H](CC(C)C)C(=O)N[C@H](C(N)=O)[C@@H](C)O)[C@@H](C)O,IC50,DU-145 [1],4050 nM
same,IC50,CDK9/cyclin T1,36.8 nM
